In patent publication US9409907B2, “Inhibitor compounds” (Cancer Research Technology Limited, priority 2012, dated 2016) one finds IC50 data, which are given here for 14 molecules.

The term IC50 denotes the concentration that inhibits the measured activity by half.

Molecules are shown by their SMILES.

Chain of full length MPS1 (P33981 whole entry): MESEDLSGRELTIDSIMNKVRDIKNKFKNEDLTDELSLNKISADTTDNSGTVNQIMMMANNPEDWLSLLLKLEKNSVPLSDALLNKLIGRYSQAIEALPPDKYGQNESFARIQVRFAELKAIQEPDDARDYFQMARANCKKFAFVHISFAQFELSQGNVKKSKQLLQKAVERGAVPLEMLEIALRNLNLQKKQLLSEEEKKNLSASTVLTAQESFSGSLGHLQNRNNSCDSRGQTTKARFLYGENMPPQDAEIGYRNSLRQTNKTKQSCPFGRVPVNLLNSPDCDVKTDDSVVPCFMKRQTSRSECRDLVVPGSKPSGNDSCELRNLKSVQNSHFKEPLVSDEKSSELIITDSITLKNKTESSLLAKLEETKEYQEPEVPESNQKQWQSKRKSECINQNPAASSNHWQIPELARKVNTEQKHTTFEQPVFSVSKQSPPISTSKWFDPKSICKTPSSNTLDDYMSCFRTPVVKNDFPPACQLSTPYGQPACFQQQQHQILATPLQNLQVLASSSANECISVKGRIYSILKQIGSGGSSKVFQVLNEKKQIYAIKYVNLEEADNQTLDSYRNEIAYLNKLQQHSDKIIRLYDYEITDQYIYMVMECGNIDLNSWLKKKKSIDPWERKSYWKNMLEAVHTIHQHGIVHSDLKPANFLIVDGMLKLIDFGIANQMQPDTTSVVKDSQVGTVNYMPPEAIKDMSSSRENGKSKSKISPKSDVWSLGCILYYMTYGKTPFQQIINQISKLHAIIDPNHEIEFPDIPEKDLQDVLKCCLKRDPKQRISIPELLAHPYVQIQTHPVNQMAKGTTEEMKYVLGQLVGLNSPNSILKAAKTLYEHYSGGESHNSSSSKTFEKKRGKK

The assay concerns the target full length MPS1 (Homo sapiens (Human), UniProt P33981). The experiment in a line: Measurement of inhibition of MPS1 kinase (Caliper EZ reader mobility-shift enzyme assay). The class given is biochemical. Conditions: full length MPS1 12.5 nM or 3 nM, H236 peptide 5 μM, ATP 10 μM, 60 min at room temperature. The method, then:
Measurement of Inhibition of MPS1 Kinase
The reaction was carried out for 60 min at room temperature and stopped by the addition of buffer (10 μl) containing 20 mM EDTA, 0.05% (v/v) Brij-35, in 0.1M HEPES-buffered saline (Free acid, Sigma, UK). The plate was read on a Caliper EZ reader II (Caliper Life Sciences).
The % inhibition of the compounds is calculated relative to the means of selected control wells.
In the case of `COc1cc(-c2cnn(C)c2)ccc1Nc1ncc2ccnc(N3CCC(F)(F)C3)c2n1` [Example 57, 8-(3,3-difluoropyrroldin-1-yl)-N-(2-methoxy-4-(1-methyl-1H-pyrazol-4-yl)phenyl)pyrido[3,4-d]pyrimidin-2-amine], the IC50 is 12 nM.
For `COc1cc(-c2cnn(C)c2)ccc1Nc1ncc2ccnc(NC3CCN(C)CC3)c2n1` [Example 113, N^2-(2-methoxy-4-(1-methyl-1H-pyrazol-4-yl)phenyl)-N^8-(1-methylpiperidin-4-yl)pyrido[3,4-d]pyrimidine-2,8-diamine], the IC50 was found to be 9 nM.
The figure for `COc1cc(N2CCN(C)CC2)ccc1Nc1ncc2ccnc(NCC(C)(C)C)c2n1` [Example 173, N2-(2-methoxy-4-(4-methylpiperazin-1-yl)phenyl)-N8-neopentylpyrido[3,4-d]pyrimidine-2,8-diamine] is 4 nM.
The figure for `COc1cc(-c2cnn(C)c2)ccc1Nc1ncc2ccnc(NCC3COC3)c2n1` [Example 72, N2-(2-methoxy-4-(1-methyl-1H-pyrazol-4-yl)phenyl)-N8-(oxetan-3-ylmethyl)pyrido[3,4-d]pyrimidine-2,8-diamine] is 5 nM; for `Cn1cc(-c2ccc(Nc3cc4c(-c5cnn(C)c5)cccc4cn3)c(Cl)c2)cn1` [Example 23] it is 225 nM; for `COc1nc(-c2cnn(C)n2)ccc1Nc1ncc2ccnc(NCC(C)(C)OC)c2n1` [Example 167, N^8-(2-Methoxy-2-methylpropyl)-N^2-(2-methoxy-6-(2-methyl-2H-1,2,3-triazol-4-yl)pyridin-3-yl)pyrido[3,4-d]pyrimidine-2,8-diamine] it is 23 nM.
The figure for `COc1cc(-c2nncn2C)ccc1Nc1ncc2cc(C)nc(NCC(C)(C)C)c2n1` [Example 179, N2-(2-methoxy-4-(4-methyl-4H-1,2,4-triazol-3-yl)phenyl)-6-methyl-N8-neopentylpyrido[3,4-d]pyrimidine-2,8-diamine] is 2 nM; for `COc1cc(-c2cnn(CCO)c2)ccc1Nc1ncc2ccnc(NC3CCOCC3)c2n1` [Example 44, 2-(4-(3-methoxy-4-((8-((tetrahydro-2H-pyran-4-yl)amino)pyrido[3,4-d]pyrimidin-2-yl)amino)phenyl)-1H-pyrazol-1-yl)ethanol] it is 3 nM.
As to `COc1cc(C(=O)N2CC(OC)C2)ccc1Nc1cc2c(-c3cnn(C)c3C)cccc2cn1` [Example 13, (4-((5-(1,5-dimethyl-1H-pyrazol-4-yl)isoquinolin-3-yl)amino)-3-methoxyphenyl)(3-methoxyazetidin-1-yl)methanone], the half-maximal inhibitory concentration (IC50) turned out to be 12 nM.
Consider `COc1cc(-c2cnn(C)c2)ccc1Nc1ncc2ccnc(N(C)C)c2n1` [Example 108, N^2-(2-methoxy-4-(1-methyl-1H-pyrazol-4-yl)phenyl)-N^8,N^8-dimethylpyrido[3,4-d]pyrimidine-2,8-diamine], for which the IC50 was determined as 16 nM.
On to `COc1cc(-c2cnn(C)c2C)ccc1Nc1ncc2ccnc(N3CCC4(COC4)C3)c2n1` [Example 145, N-(4-(1,5-dimethyl-1H-pyrazol-4-yl)-2-methoxyphenyl)-8-(2-oxa-6-azaspiro[3.4]octan-6-yl)pyrido[3,4-d]pyrimidin-2-amine], for which the IC50 turned out to be 2 nM.
The figure for `COc1nc(-c2cnc(C)n2C)ccc1Nc1ncc2ccnc(NCC(C)(C)OC)c2n1` [Example 162, N^2-(6-(1,2-Dimethyl-1H-imidazol-5-yl)-2-methoxypyridin-3-yl)-N^8-(2-methoxy-2-methylpropyl)pyrido[3,4-d]pyrimidine-2,8-diamine] is 3 nM.
The figure for `COc1cc(-c2cnn(C)c2)ccc1Nc1ncc2ccnc(NC3CCOCC3)c2n1` [Example 69, N2-(2-methoxy-4-(1-methyl-1H-pyrazol-4-yl)phenyl)-N8-(tetrahydro-2H-pyran-4-yl)pyrido[3,4-d]pyrimidine-2,8-diamine] is 3 nM; for `COc1cc(-c2cnn(C)c2)c(C)cc1Nc1ncc2ccnc(-c3cnn(C)c3)c2n1` [Example 36] it is 100 nM.
